# Experimental data: ChEMBL document CHEMBL4219188, “Design, synthesis, neuroprotective, antibacterial activities and docking studies of novel thieno[2,3-d]pyrimidine-alkyne Mannich base and oxadiazole hybrids” (Bioorg Med Chem Lett, 2018)
# What was measured:
# [1] = test system: Staphylococcus aureus; experiment: Antibacterial activity against Staphylococcus aureus assessed as diameter of inhibition zone measured after 24 hrs by agar well diffusion method; format: functional; also: test concentration or dose not given here
# [2] = Cytotoxicity against rat PC12 cells after 24 hrs by MTT assay; format: cell-based, PC-12; settings: for MNTC at 24 h: read-out: MNCC
# [3] = test system: Escherichia coli; experiment: Antibacterial activity against Escherichia coli after 24 hrs by UV-vis spectrophotometric method; format: functional
# [4] = test system: Bacillus subtilis; experiment: Antibacterial activity against Bacillus subtilis assessed as diameter of inhibition zone measured after 24 hrs by agar well diffusion method; format: functional; also: test concentration or dose not given here
# [5] = test system: Pseudomonas aeruginosa; experiment: Antibacterial activity against Pseudomonas aeruginosa assessed as diameter of inhibition zone measured after 24 hrs by agar well diffusion method; format: functional; also: test concentration or dose not given here
# [6] = test system: PC-12; experiment: Neuroprotective activity against H2O2-induced cytotoxicity in rat PC12 cells assessed as cell viability at EC50 pretreated for 24 hrs followed by H2O2 addition by MTT assay relative to control; format: functional
# [7] = test system: PC-12; experiment: Neuroprotective activity against H2O2-induced cytotoxicity in rat PC12 cells assessed as increase in cell viability pretreated for 24 hrs followed by H2O2 addition by MTT assay; format: functional, cell-based
# [8] = test system: Staphylococcus aureus; experiment: Antibacterial activity against Staphylococcus aureus after 24 hrs by UV-vis spectrophotometric method; format: functional
# [9] = test system: Pseudomonas aeruginosa; experiment: Antibacterial activity against Pseudomonas aeruginosa after 24 hrs by UV-vis spectrophotometric method; format: functional
# [10] = Cytotoxicity against rat PC12 cells assessed as cell viability at MNTC after 24 hrs by MTT assay relative to control; format: cell-based, PC-12; settings: read-out: Activity
# [11] = Cytotoxicity against rat PC12 cells assessed as cell viability at CC50 after 24 hrs by MTT assay relative to control; format: cell-based, PC-12; settings: read-out: Activity
# [12] = test system: Bacillus subtilis; experiment: Antibacterial activity against Bacillus subtilis after 24 hrs by UV-vis spectrophotometric method; format: functional
# [13] = test system: Escherichia coli; experiment: Antibacterial activity against Escherichia coli assessed as diameter of inhibition zone measured after 24 hrs by agar well diffusion method; format: functional; also: test concentration or dose not given here
Molecule,diameter of the inhibition zone (DIZ) [1],CC50 at 24 h [2],MNTC at 24 h [2],MIC [3],diameter of the inhibition zone (DIZ) [4],diameter of the inhibition zone (DIZ) [5],Activity [6],Activity [7],EC50 [7],MIC [8],MIC [9],viability at 24 h [10],viability at 24 h [11],MIC [12],diameter of the inhibition zone (DIZ) [13]
Cc1c(-c2nnc(-c3ccccc3)o2)sc2ncnc(N3CCCCC3)c12,11 mm,146 µg/mL,100 µg/mL,0.0132 µg/mL,14 mm,13 mm,76.88%,Dose-dependent effect,22.1 µg/mL,0.0125 µg/mL,0.0144 µg/mL,99.2%,54.1%,0.0128 µg/mL,10 mm
Cc1ccc(C#N)c(N2CCN(CC#CCOC(=O)c3sc4ncnc(N5CCOCC5)c4c3C)CC2)c1,7 mm,146 µg/mL,118 µg/mL,0.0324 µg/mL,13 mm,14 mm,74.98%,Dose-dependent effect,41.3 µg/mL,0.062 µg/mL,0.0624 µg/mL,98.5%,49.1%,0.0156 µg/mL,13 mm
COc1ccc(N2CCN(CC#CCOC(=O)c3sc4ncnc(N5CCOCC5)c4c3C)CC2)cc1,8 mm,144 µg/mL,60 µg/mL,0.12 µg/mL,12 mm,14 mm,74.89%,Dose-dependent effect,36.2 µg/mL,0.062 µg/mL,0.062 µg/mL,98.1%,49.1%,0.062 µg/mL,12 mm
Cc1c(-c2nnc(-c3ccc([N+](=O)[O-])cc3)o2)sc2ncnc(N3CCCCC3)c12,8 mm,145 µg/mL,125 µg/mL,0.0361 µg/mL,18 mm,17 mm,74.78%,Dose-dependent effect,11.9 µg/mL,0.044 µg/mL,0.0382 µg/mL,99%,49.9%,0.0641 µg/mL,14 mm
COc1ccc(N2CCN(CC#CCOC(=O)c3sc4ncnc(N5CCCCC5)c4c3C)CC2)cc1,13 mm,140 µg/mL,80 µg/mL,0.622 µg/mL,11 mm,10 mm,76.16%,Dose-dependent effect,35.3 µg/mL,0.313 µg/mL,0.0614 µg/mL,99.4%,49.4%,0.0158 µg/mL,11 mm
COc1ccc(-c2nnc(-c3sc4ncnc(N5CCCCC5)c4c3C)o2)cc1,10 mm,124 µg/mL,100 µg/mL,0.0486 µg/mL,14 mm,12 mm,75.12%,Dose-dependent effect,20.1 µg/mL,0.0366 µg/mL,0.0448 µg/mL,99%,49.9%,0.0642 µg/mL,17 mm
Cc1c(-c2nnc(-c3ccc(Cl)cc3)o2)sc2ncnc(N3CCCCC3)c12,16 mm,151 µg/mL,136 µg/mL,0.186 µg/mL,13 mm,14 mm,75.04%,Dose-dependent effect,21.8 µg/mL,0.0224 µg/mL,0.144 µg/mL,98.2%,48.9%,0.0284 µg/mL,15 mm
Cc1c(C(=O)OCC#CCN2CCN(c3cc(C4CC4)ccc3C#N)CC2)sc2ncnc(N3CCCCC3)c12,14 mm,148 µg/mL,110 µg/mL,0.521 µg/mL,16 mm,17 mm,75.14%,Dose-dependent effect,16.2 µg/mL,0.0422 µg/mL,0.0686 µg/mL,99.6%,50.1%,0.0581 µg/mL,17 mm
Cc1c(C(=O)OCC#CCN2CCN(c3ccc(Br)cc3C#N)CC2)sc2ncnc(N3CCOCC3)c12,10 mm,122 µg/mL,100 µg/mL,0.0324 µg/mL,12 mm,12 mm,75.44%,Dose-dependent effect,32.3 µg/mL,0.526 µg/mL,0.0128 µg/mL,99.6%,49%,0.0628 µg/mL,13 mm
Cc1c(-c2nnc(-c3ccccc3)o2)sc2ncnc(N3CCOCC3)c12,16 mm,200 µg/mL,160 µg/mL,0.0211 µg/mL,12 mm,11 mm,76.18%,Dose-dependent effect,10.6 µg/mL,0.0412 µg/mL,0.0186 µg/mL,99.5%,50.4%,0.0366 µg/mL,16 mm
COc1ccc(-c2nnc(-c3sc4ncnc(N5CCOCC5)c4c3C)o2)cc1,12 mm,140 µg/mL,120 µg/mL,0.012 µg/mL,13 mm,16 mm,75.15%,Dose-dependent effect,28.2 µg/mL,0.0132 µg/mL,0.044 µg/mL,98.3%,51.9%,0.0112 µg/mL,12 mm
Cc1c(C(=O)OCC#CCN2CCN(c3cc(C4CC4)ccc3C#N)CC2)sc2ncnc(N3CCOCC3)c12,13 mm,198 µg/mL,150 µg/mL,0.186 µg/mL,10 mm,13 mm,75.15%,Dose-dependent effect,12.4 µg/mL,0.312 µg/mL,0.0634 µg/mL,99.1%,49.9%,0.124 µg/mL,12 mm
GENTAMICIN,–,–,–,0.0212 µg/mL,–,–,–,–,–,0.0422 µg/mL,0.0242 µg/mL,–,–,0.0386 µg/mL,–
